Tested on: Plasmodium falciparum
Assay: GSK_TCMDC: Inhibition of Plasmodium falciparum 3D7 in whole erythrocytes, using parasite LDH activity as an index of growth.
Format: functional, organism-based
Conditions: Plasmodium falciparum, 3D7

Question: For `COC(=O)c1cccc(C#CCCOCCCCCCNC[C@H](O)c2cc(Cl)c(N)c(Cl)c2)c1`, which XC50 is on record?
Answer: 771 nM

Question: `CCCCN1CC[C@@H](CCC(O)c2ccnc3ccc(OCCC(C)C)cc23)[C@@H](CC)C1` (stereo partly specified) was tested. Which XC50 did it give?
Answer: 989 nM

Question: Which XC50 does the source give for `CC(C)(C)Nc1nc(Nc2cccc([N+](=O)[O-])c2)nc(-n2ccnc2)n1` here?
Answer: 811 nM

Question: For `Cc1nccn1Cc1cc(C(C)(C)C)c(O)c(C(C)(C)C)c1`, which XC50 is on record?
Answer: 788 nM

Question: With `N#CC(CC(=O)c1ccc(Cl)cc1)c1cccc(F)c1` (stereo unspecified) as the compound, how does the XC50 read?
Answer: 854 nM

Question: With `CCCC(=O)Nc1ccc(OCCCN(Cc2cccc(C(F)(F)F)c2)c2ccc(C#N)c(C(F)(F)F)c2)cc1` as the compound, how does the XC50 read?
Answer: 1090 nM

Question: Which XC50 does the source give for `N=C(N)Nc1nc(-c2cccc(NC(=O)C(F)(F)F)c2)cs1` here?
Answer: 1050 nM

Question: How did the XC50 turn out when `CC(C)(C)c1ccc(NC(=O)c2ccc(CN3CCCN(Cc4cccc(C#N)c4)CC3)cc2)cc1` was run?
Answer: 641 nM

Question: For `CNC(=O)c1cc(F)c(F)cc1Nc1nc(Nc2cccc(CS(C)(=O)=O)c2)ncc1Cl`, which XC50 is on record?
Answer: 1020 nM

Question: How did the XC50 turn out when `O=C(Cc1ccc[n+]([O-])c1)Nc1ccc(-c2cccc(-c3nc4cc(C(F)(F)F)ccc4[nH]3)c2)cc1` was run?
Answer: 882 nM

Question: Which XC50 does the source give for `Cc1cccc2nc(-c3ccc(-c4ccc(NC(=O)CN5CCN(C)CC5)cc4)s3)[nH]c12` here?
Answer: 1020 nM

Question: For `Cc1cnc(NC(=O)c2cn(-c3ccccc3)nc2-c2cccs2)s1`, which XC50 is on record?
Answer: 945 nM

Question: `N=C(N)NN=C1C=Cc2cccc3cccc1c23` was tested. Which XC50 did it give?
Answer: 609 nM

Question: `Cn1cc(Br)c(-c2cccc(Nc3ccnc4cc(-c5nccs5)ccc34)c2)n1` was tested. Which XC50 did it give?
Answer: 979 nM

Question: `CS(=O)(=O)CCNCc1ccc(-c2ccc3ncnc(Nc4ccc(OCc5ccccc5)c(Cl)c4)c3c2)o1` [GW574783B] was tested. Which XC50 did it give?
Answer: 557 nM

Question: For `CC(C)C[C@H](NC(=O)c1ccc(OCCN2CCOCC2)cc1)C(=O)N[C@H](/C=N/N1CC(=O)NC1=O)CCc1ccccc1`, which XC50 is on record?
Answer: 277 nM

Question: For `O=C(Nc1ccccc1)N(Cc1ccccc1-c1cccc(CNCc2ccc3c(c2)OCO3)c1)C1CCN(Cc2ccccc2)CC1`, which XC50 is on record?
Answer: 108 nM

Question: With `NS(=O)(=O)c1cccc(-c2ccc3ncc(N4CCOCC4)nc3c2)c1` as the compound, how does the XC50 read?
Answer: 987 nM

Question: For `Cc1cccc2nc(-c3cccc(-c4ccc(NC(=O)C5CC(=O)Nc6ccccc65)cc4)c3)[nH]c12` (stereo unspecified), which XC50 is on record?
Answer: 685 nM

Question: `Cn1cncc1C(=O)Nc1ccc(-c2ccc(-c3nc4cc(C(F)(F)F)ccc4[nH]3)cc2)cc1` was tested. Which XC50 did it give?
Answer: 560 nM

Question: For `O=C(c1ccc(-c2ccc(-c3nc4ccccc4[nH]3)s2)cc1)N1CCCCC1CN1CCC(O)C1` (stereo unspecified), which XC50 is on record?
Answer: 1050 nM

Question: For `CC(=O)c1ccc(NC(=O)Nc2ccc3nccc(N4CCN(C)CC4)c3c2)cc1`, which XC50 is on record?
Answer: 432 nM

Question: Which XC50 does the source give for `CC(C)NCc1ccc(-c2ccc(NC(=O)c3cccc(C#N)c3)cc2)cc1` here?
Answer: 654 nM

Question: For `CCN1CCC(N(CCCCCCCCc2ccc(C(F)(F)F)cc2)C(=O)Cn2c(CCc3cccc(F)c3F)cc(=O)c3ccccc32)CC1`, which XC50 is on record?
Answer: 1200 nM

Question: `Cc1cc2ccc(-c3cccc(CN)c3)cc2nc1N` was tested. Which XC50 did it give?
Answer: 758 nM

Question: Which XC50 does the source give for `CN1CCN(c2ccnc3ccc(NC(=O)Cc4ccc(Br)c5ccccc45)cc23)CC1` here?
Answer: 807 nM

Question: For `CN1CCC(NCc2cccc(-c3nn(C)c4nc(NC5CCCC5)ncc34)c2)CC1`, which XC50 is on record?
Answer: 1020 nM

Question: How did the XC50 turn out when `COc1ccc(C(=O)Nc2ccc3nc(N4CCCCC4)cc(C)c3c2)cc1OC` was run?
Answer: 994 nM

Question: For `O=C(CCNc1ccnc(NCCc2ccccc2)n1)Nc1ccccc1`, which XC50 is on record?
Answer: 836 nM

Question: For `O=C(Nc1ccc(Cl)cc1)c1ccc(S(=O)(=O)NCC2CCN(CC3CCCCC3)CC2)cc1`, which XC50 is on record?
Answer: 857 nM

Question: For `CC1CCCCC1N(C)C1CCN(CCCNC(=O)C=Cc2ccccc2Cl)CC1` (stereo unspecified), which XC50 is on record?
Answer: 666 nM

Question: How did the XC50 turn out when `N=C(NCc1ccc(O)cc1)Nc1nc(-c2ccc(OCCCn3ccnc3)cc2)cs1` was run?
Answer: 749 nM

Question: Which XC50 does the source give for `c1ccc(Oc2ccc(Nc3ccnc4ccc(-c5ccccn5)cc34)cc2)cc1` here?
Answer: 1100 nM

Question: For `Cc1cc(-c2ccc(CNCc3ccsc3)cc2)ccc1S(=O)(=O)NCCN1CCCC1`, which XC50 is on record?
Answer: 725 nM

Question: `Nc1nc(-c2ccc3c(Nc4ccc(F)c(Cl)c4)ccnc3c2)cs1` was tested. Which XC50 did it give?
Answer: 868 nM

Question: For `CC1(C)S(=O)(=O)CC(O)CS1(=O)=O`, which XC50 is on record?
Answer: 467 nM

Question: With `CC(=NNC(=N)N)c1ccc2c(ccc3ccccc32)c1` as the compound, how does the XC50 read?
Answer: 833 nM

Question: How did the XC50 turn out when `O=C(Nc1cccc(-c2cccc(-c3nc4ccccc4[nH]3)c2)c1)c1cccnc1` was run?
Answer: 646 nM

Question: For `O=C(Nc1ccc(-c2ccc(-c3nc4ccccc4[nH]3)s2)cc1)Nc1ccc(F)c(F)c1F`, which XC50 is on record?
Answer: 194 nM

Question: `CC(C)COc1ccc(Cl)cc1Cc1ccc(-c2nc3c(F)cccc3[nH]2)o1` was tested. Which XC50 did it give?
Answer: 806 nM

Question: With `NCC(=O)NC12CC3CC(CC(C3)C1)C2` as the compound, how does the XC50 read?
Answer: 1200 nM

Question: `COc1ccc(N2CCN(C(CNC(=O)C3CCCCC3)c3ccc4c(c3)OCO4)CC2)cc1` (stereo unspecified) was tested. Which XC50 did it give?
Answer: 566 nM

Question: For `CC1(C)N=C(N)N=C(N)N1OCCCCON1C(N)=NC(N)=NC1(C)C`, which XC50 is on record?
Answer: 66 nM

Question: Which XC50 does the source give for `COc1ccc(-n2ccnc2)cc1CNC1CCN(CC2Cn3c(=O)ccc4ccc(F)c2c43)CC1` (stereo unspecified) here?
Answer: 927 nM

Question: `CC[C@H]1CN2CC[C@H]1C[C@H]2[C@H](O)c1cc(N2CCCC(CO)C2)nc2ccc(OC)cc12` (stereo partly specified) was tested. Which XC50 did it give?
Answer: 77.5 nM

Question: With `Fc1ccc2[nH]c(-c3ccc(-c4cccc(CN5CCN(CCN6CCOCC6)CC5)c4)cc3)nc2c1` as the compound, how does the XC50 read?
Answer: 145 nM

Question: `CCOc1ccc2[nH]c(C)cc(=NN=Cc3ccccc3Cl)c2c1` was tested. Which XC50 did it give?
Answer: 191 nM

Question: With `CCCCCCNC(=O)c1nn(CCN2CCC(N3CCCC3)CC2)cc1-c1ccc(Cl)c(Cl)c1` as the compound, how does the XC50 read?
Answer: 733 nM

Question: For `S=C(NN=Cc1ccccn1)NC1CC2C=CC1C2` (stereo unspecified), which XC50 is on record?
Answer: 721 nM

Question: For `Oc1ccc(-c2cc(COc3ccccc3C(F)(F)F)c(C3=CCNCC3)cc2COc2ccccc2C(F)(F)F)cc1`, which XC50 is on record?
Answer: 775 nM

Question: How did the XC50 turn out when `CCOc1cccc(C(=O)Nc2cccc(CN3CCCN(Cc4cccc(O)c4)CC3)c2)c1` was run?
Answer: 1090 nM

Question: For `O=C(Nc1cccc(-c2ccc(CN3CCC(O)CC3)cc2)c1)c1cccc(Cl)c1`, which XC50 is on record?
Answer: 764 nM

Question: For `COc1ccc(C(O)CNC(C)CCc2ccc(F)cc2)cc1C(F)(F)F` (stereo unspecified), which XC50 is on record?
Answer: 747 nM

Question: Which XC50 does the source give for `COc1ccc(Nc2ncc3c(-c4cccc(NC(=O)Cc5cccc(F)c5)c4)c[nH]c3n2)cc1OC` here?
Answer: 567 nM

Question: With `Cc1n[nH]c2ccc(-c3cc(OC[C@@H](N)Cc4ccccc4)cnc3-c3ccc(OCc4cccc(F)c4)cc3)cc12` as the compound, how does the XC50 read?
Answer: 730 nM

Question: With `Cn1cncc1CCN(Cc1ccc(-c2ccc(C(F)(F)F)cc2)cc1)C(=O)Cn1c(SCc2cccc(F)c2F)cc(=O)c2ccccc21` as the compound, how does the XC50 read?
Answer: 990 nM

Question: Which XC50 does the source give for `Fc1cccc(Nc2nc(NCc3ccc(OCc4ccccc4)cc3)nc(Nc3cccc(F)c3)n2)c1` here?
Answer: 1180 nM

Question: `Oc1cccc(CNCCCN(Cc2ccccc2)c2ccccc2)c1` was tested. Which XC50 did it give?
Answer: 600 nM

Question: Which XC50 does the source give for `Cc1cc2nc(-c3ccc(/C=C/C(=O)NCc4ccc(Cl)c(Cl)c4)cc3)[nH]c2cc1C` here?
Answer: 824 nM

Question: Which XC50 does the source give for `CCCN1CCN(Cc2ccc(C(=O)Nc3ccc(Cl)cc3)cc2)CC1` here?
Answer: 48.5 nM

Question: For `CN(C)CCCOc1ccccc1CN1CC[C@H](NC(=O)c2ccc(Cl)c(Cl)c2)C1`, which XC50 is on record?
Answer: 1110 nM

Question: `Cc1ccc(CNC(=O)c2cnc(N3CCN(c4ccncc4)CC3)c(Cl)c2)cc1` was tested. Which XC50 did it give?
Answer: 1290 nM

Question: How did the XC50 turn out when `c1ccc2[nH]c(-c3ccc(-c4ccc(CN5CCCCC5)cc4)s3)nc2c1` was run?
Answer: 742 nM

Question: Which XC50 does the source give for `Cc1c(Cl)cccc1S(=O)(=O)Nc1cccc(CCN2CCC(N3CCCCC3)CC2)c1` here?
Answer: 830 nM

Question: For `Cc1ccc(S(=O)(=O)N(CCCNCc2cccc(O)c2)c2ccccc2)cc1`, which XC50 is on record?
Answer: 767 nM

Question: For `COc1ccc(/N=[N+](\[O-])c2ccccc2/[N+]([O-])=N/c2ccc(OC)cc2)cc1`, which XC50 is on record?
Answer: 987 nM

Question: With `COc1ccc(-c2cnc3[nH]cc(-c4ccc(C(=O)O)c(C)c4)c3c2)cn1` as the compound, how does the XC50 read?
Answer: 311 nM

Question: `O=S(=O)(NC1CCN(c2ccnc3cc(Cl)ccc23)C1)c1ccc(F)cc1` (stereo unspecified) was tested. Which XC50 did it give?
Answer: 475 nM

Question: For `O=c1cc(NCCCNCc2ccc(C(F)(F)F)cc2F)[nH]c2ccccc12`, which XC50 is on record?
Answer: 956 nM

Question: `Cc1ccc2c(C3=CCN(CCCCC4(C)C(=O)Nc5ccccc54)CC3)c(C)[nH]c2c1` (stereo unspecified) was tested. Which XC50 did it give?
Answer: 374 nM

Question: Which XC50 does the source give for `COc1ccc2nccc(N3CCN(CCNCc4ccc5c(n4)NC(=O)CO5)CC3)c2c1` here?
Answer: 1160 nM
